# Laboratory results as given in PubChem BioAssay AID2202554 (NIEHS Division of Translational Toxicology (DTT)).
# Inconclusive results are not listed. Active and inactive are the calls of the source. The rule behind the calls is not given here.
# System: S. typhimurium/E. coli reverse mutation, colony counts
# Assay: Bacterial reverse mutation test (aka Ames test) summary data;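 note: His-minus Salmonella and trp-minus E. coli WP2 uvrA pKM101 with or without liver S9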
# Description: The Ames test uses bacteria cultures to determine whether a substance causes mutations. Because there is a significant overlap between substances that are mutagens and those that are carcinogens, a quick and inexpensive mutagenicity test is useful as an initial screening for possible carcinogens.
# The Ames test relies on specific strains of S. typhimurium, namely: TA97, TA98, TA100, TA102, TA104, TA1535, TA1537, and TA1538. In addition to the S. typhimurium strains, the test may also use the E. coli strain WP2 uvrA pKM101.
# Each of the bacterial strains has a mutation that prevents it from making an amino acid (a protein building block) required for normal cell growth. The S. typhimurium strains are unable to manufacture histidine; the E. coli strain cannot manufacture tryptophan. The tester strains will not be able to grow without amino acid supplementation, unless the mutated gene is changed back to the correct DNA sequence (reversion mutation). Being exposed to a mutagenic chemical increases the chance that the mutant gene will be restored to the correct sequence, which allows the bacteria to grow and form colonies. Each substance under study is tested in a variety of bacterial strains with different types of altered DNA sequences in order to provide a comprehensive assessment of the mutagenic potential of the substance.
# Some non-mutagenic substances are converted to mutagenic substances when metabolized by the liver; in contrast, some substances that are mutagenic in their natural state are converted to non-mutagens by the liver. All substances are tested in their natural state, as well as in the presence of liver enzymes that can produce this metabolic conversion of the test substance. Extracts of rat, hamster, or mouse liver enzymes (S9 mix) are used for this purpose.
# D. Preparing the Cultures
# Multiple sets of cultures are prepared using a range of doses and different amounts of liver enzymes for each bacterial strain. Each culture is prepared in a test tube containing a suspension of one bacterial strain and either an S9 mix or plain buffer solution. Then the test substance is added. Negative control cultures are established using the same ingredients, but without the test substance. Positive control cultures are established using known mutagens active in particular bacterial strains and metabolic conditions (for example, with or without S9). Once prepared, each culture is incubated for 20 minutes at 37° C. Agar is then added to the cultures, and the contents of each tube are poured onto the surface of a Petri dish that was prepared with standard bacterial culture medium. The plates are then incubated, usually for two days.
# Depending on the substance to be tested, the exposure and incubation processes may be modified. These variations include:
# - Elimination of the 20-minute incubation period in a test tube prior to plating (this method is referred to as the standard plate incorporation method)
# - Enzymatic reduction of azo and diazo substances (this process occurs in the intestine or liver of animals) using a chemical called flavin mononucleotide (FMN) or intestinal bacterial preparations from rats
# - Testing in sealed chambers such as desiccators for volatile and gaseous chemicals.
# To validate the test, a trained investigator compares the number of colonies on the chemical-treated plates to the number of colonies on the negative control plates. If the substance under test is mutagenic, the chemical-treated plates will have a much greater number of colonies than the negative control plates.
# - A positive response is a reproducible, dose-related increase in mutant colonies in any single strain, with or without the addition of S9 metabolic enzymes. While there is no minimum percentage of increase required for a result to be considered positive, a twofold increase in mutant colonies in a treated plate is usually considered to be a positive (mutagenic) response.
# […]
row,Compound,outcome
1,Nc1ccc([N+](=O)[O-])c(N)c1,active; positive
2,Cc1cc(O)c2c(c1)C(=O)c1cc(O)cc(O)c1C2=O,active; positive
3,CCCCCC,inactive; negative
4,Brc1c(Br)c(Br)c(Oc2c(Br)c(Br)c(Br)c(Br)c2Br)c(Br)c1Br,inactive; negative
5,CN(C)C(=O)Nc1cccc(C(F)(F)F)c1,inactive; negative
6,CC1CO1 (stereo not drawn),active; positive
7,Cc1coc2c1CCC(C)C2 (stereo not drawn),inactive; negative
8,O=C(Cl)C(Cl)Cl,active; positive
9,O=C(O)CN(CC(=O)O)CC(=O)O,inactive; negative
10,c1ccc(C2CO2)cc1 (stereo not drawn),active; positive
11,COc1ccc(C(=O)/C(Br)=C\C(=O)O)cc1,active; positive
12,CCCCNCCCC,inactive; negative
13,N#C/C=C/C#N,inactive; negative
14,O=C(O)C(Cl)(Cl)Cl,inactive; negative
15,Nc1nc(=S)c2[nH]cnc2[nH]1,active; positive
16,C=CCCC#N,inactive; negative
17,CCCCCCCCn1sccc1=O,inactive; negative
18,ClC1=C(Cl)[C@]2(Cl)[C@@H]3[C@@H]4C[C@@H]([C@H]5O[C@@H]45)[C@@H]3[C@@]1(Cl)C2(Cl)Cl,inactive; negative
19,CNC(=O)CSP(=S)(OC)OC,active; positive
20,CC(C)COC(=O)COc1cc(Cl)c(Cl)cc1Cl,inactive; negative
21,CNC=O,inactive; negative
22,Clc1ccc(N=Nc2ccc(Cl)c(Cl)c2)cc1Cl,active; positive

row,Compound,outcome
1,CCC(C(N)=O)(C(N)=O)c1ccccc1,active; weakly positive
2,CN(C)c1ccc(C(=N)c2ccc(N(C)C)cc2)cc1,active; positive
3,Oc1c(Br)c(Br)c(Br)c(Br)c1Br,inactive; negative
4,c1ccc2n[nH]nc2c1,active; weakly positive
5,O=C(NC(S)c1nc2ccccc2s1)NC(S)c1nc2ccccc2s1 (stereo not drawn),active; positive
6,CCCCCCCC(=O)OCC(COC(=O)CCCCCCC)OC(=O)CCCCCCC,active; positive
7,OCCCBr,active; positive
8,COC=O,inactive; negative
9,CNC(=O)NC,inactive; negative
10,CCCC(C)(COC(N)=O)COC(=O)NC(C)C (stereo not drawn),inactive; negative
11,O=C([O-])c1ccccn1.O=C([O-])c1ccccn1.O=C([O-])c1ccccn1.[Cr+3],inactive; negative
12,C=CCO,inactive; negative
13,O=C(O)c1ccc([N+](=O)[O-])cc1,active; positive
14,CNCCO,inactive; negative
15,Nc1ccc(S(=O)(=O)Nc2ccccn2)cc1,inactive; negative
16,CC(C)C#N,inactive; negative
17,CC(C)(O)C#N,inactive; negative
18,CCCCN1CCCCC1C(=O)Nc1c(C)cccc1C (stereo not drawn),inactive; negative
19,CN(C)CCN(C)C,inactive; negative
20,Cc1ccc(O)c(C)c1,active; weakly positive
21,COc1ccc(C(Cl)=C(c2ccc(OC)cc2)c2ccc(OC)cc2)cc1,inactive; negative
22,Cc1ccccc1C,inactive; negative

row,Compound,outcome
1,O=C1C=C(O)c2ccccc2C1=O,active; positive
2,CCCCCCOC(=O)c1ccccc1,inactive; negative
3,CC1=CC(=O)CC(C)(C)C1,inactive; negative
4,O=C(O)C(F)(F)C(F)(F)C(F)(F)C(F)(F)C(F)(F)C(F)(F)C(F)(F)C(F)(F)C(F)(F)C(F)(F)C(F)(F)F,inactive; negative
5,Brc1ccc(Oc2cc(Br)c(Br)cc2Br)c(Br)c1,inactive; negative
6,Cc1cc(C(C)(C)C)c(O)c(C(C)(C)C)c1,inactive; negative
7,O=C(O)CNCP(=O)(O)O,inactive; negative
8,ClCC(Br)CBr (stereo not drawn),active; positive
9,C=CC(=O)O,inactive; negative
10,NCCNCCO,active; weakly positive
11,CC(=O)CC(C)C,inactive; negative
12,[O]=[Cr](=[O])([OH])[O][Cr](=[O])(=[O])[OH],active; positive
13,Nc1ccc(C(=O)O)cc1,inactive; negative
14,C1CN(CCOCCN2CCOCC2)CCO1,inactive; negative
15,NC(=NCCCCCCN=C(N)/N=C(\N)Nc1ccc(Cl)cc1)/N=C(\N)Nc1ccc(Cl)cc1,inactive; negative
16,CCOC(=O)CC(C)O (stereo not drawn),inactive; negative
17,CC(C)(C)OOC(=O)c1ccccc1,active; positive
18,C=CC(C)C#N (stereo not drawn),active; weakly positive
19,C=CCCCCCC,inactive; negative
20,CCN(CC)C(=O)c1cccc(C)c1,inactive; negative
21,ClCc1cccnc1,active; positive
22,CCc1ccc(C(c2ccc(CC)cc2)C(Cl)Cl)cc1,active; positive

row,Compound,outcome
1,COCCOCCOC,inactive; negative
2,Nc1ccccc1C(=O)OC1CCCCC1,inactive; negative
3,C=CC(=O)NCCNC(=O)C=C,active; positive
4,Cc1ccc(S(=O)(=O)Oc2ccc(N=Nc3ccc(-c4ccc(N=Nc5c(O)ccc6cc(S(=O)(=O)O)cc(S(=O)(=O)O)c56)c(C)c4)cc3C)cc2)cc1,active; positive
5,CCCCC(CC)CO (stereo not drawn),inactive; negative
6,Nc1nc2ncc(CNc3ccc(C(=O)N[C@@H](CCC(=O)O)C(=O)O)cc3)nc2c(=O)[nH]1,inactive; negative
7,Nc1nc(N)nc(N)n1,inactive; negative
8,CCC#N,inactive; negative
9,O=C(O)c1ccc(Cl)cc1Cl,inactive; negative
10,CC(C)COC(=O)c1ccccc1N,inactive; negative
11,CN(C)C(=O)Cl,active; positive
12,ClCC(Cl)(Cl)Cl,inactive; negative
13,Nc1ccn([C@H]2CC[C@@H](CO)O2)c(=O)n1,active; weakly positive
14,O=c1c2ccc3c4c(ccc(c24)c2nc4ccccc4n12)c(=O)n1c2ccccc2nc31,active; positive
15,ClCCBr,active; positive
16,CCCCC(CC)COC(=O)CCCCCCCCC(=O)OCC(CC)CCCC (stereo not drawn),inactive; negative
17,CC(=O)c1ccccn1,inactive; negative
18,COC(=O)CCCC(=O)OC,inactive; negative
19,CN,inactive; negative
20,Cc1ccncc1,inactive; negative
21,Cc1cc(C)cc(O)c1,inactive; negative
22,CCCCCCCC/C=C\CCCCCCCC(=O)O,inactive; negative

row,Compound,outcome
1,C=C(C)c1ccccc1,inactive; negative
2,O=C1C=CCCC1,inactive; negative
3,CN(C)C(=O)Nc1ccc(Cl)cc1,inactive; negative
4,C=CCN=C=S,active; weakly positive
5,CCCCCCCCCCCCCCCCC1CO1 (stereo not drawn),inactive; negative
6,COC[CH2][Hg+],inactive; negative
7,C[Si](C)(C)O[Si](C)(O[Si](C)(C)C)O[Si](C)(C)C,inactive; negative
8,C=CCc1ccc2c(c1)OCO2,inactive; negative
9,CCCCC(CC)COCC1CO1 (stereo not drawn),active; positive
10,CCCCO,inactive; negative
11,C1CCCCC1,inactive; negative
12,N[C@@H](CCC(=O)O)C(=O)O,inactive; negative
13,C=CC(=O)OCC,active; weakly positive
14,C=C(C#N)C(=O)OCC,inactive; negative
15,CC1CCC(CO)CC1 (stereo not drawn),inactive; negative
16,OC(c1ccc(Cl)cc1)(c1ccc(Cl)cc1)c1ccc(Cl)cc1,inactive; negative
17,CN(C)c1ccc(N)cc1,active; positive
18,O=C1OC(c2ccc(O)cc2)(c2ccc(OC3O[C@H](C(=O)O)[C@@H](O)[C@H](O)[C@H]3O)cc2)c2ccccc21 (stereo partly drawn),inactive; negative
19,Cc1ccc(Cl)cc1,inactive; negative
20,C[CH2][Pb]([Cl])([CH2]C)[CH2]C,inactive; negative
